What is called Papp is a coefficient for how fast a substance crosses the barrier. Read a low Papp as poor permeation. For orientation: Ki means a dissociation constant, usually derived from enzyme kinetics or from competition with a known ligand. Read a low Ki as tighter binding.

SMILES strings stand for the structures. Where only a bound is given, the exact number is not on record here.

One experiment has as its system Caco-2. Briefly: Papp in Caco-2 permeability assay. In kind it is functional, cell-based. The following applies: Homo sapiens. On the technique in general: Caco-2 monolayers are a common model of the intestinal barrier.
Regarding `CCc1cc(CC(NC(C)=O)C(=O)NCCCCOc2cccc(O)c2C(=O)OC)ccc1N(C(=O)C(=O)O)c1ccccc1C(=O)O` (stereo not given), the apparent permeability (Papp) is less than 1 ×10⁻⁶ cm/s.
As to `COC(=O)c1c(O)cccc1OCCCCNC(=O)[C@H](Cc1ccc(OCC(=O)O)cc1)NC(=O)OC(C)(C)C`, the Papp worked out at 10 ×10⁻⁶ cm/s.
On to `COC(=O)c1c(O)cccc1OCCCCNC(=O)[C@H](Cc1ccc(OCC(=O)O)c(O)c1)NC(C)=O`, for which the apparent permeability coefficient (Papp) was more than 10 ×10⁻⁶ cm/s.
Take `COC(=O)c1c(O)cccc1OCCCCNC(=O)[C@H](Cc1ccc(NC(=O)C(=O)O)cc1)NC(=O)OC(C)(C)C`: the Papp was less than 1 ×10⁻⁶ cm/s.

The target in a further experiment is T1, Tyrosine-protein phosphatase non-receptor type 1 (Homo sapiens, UniProt P18031).
T1 sequence (P18031 whole entry): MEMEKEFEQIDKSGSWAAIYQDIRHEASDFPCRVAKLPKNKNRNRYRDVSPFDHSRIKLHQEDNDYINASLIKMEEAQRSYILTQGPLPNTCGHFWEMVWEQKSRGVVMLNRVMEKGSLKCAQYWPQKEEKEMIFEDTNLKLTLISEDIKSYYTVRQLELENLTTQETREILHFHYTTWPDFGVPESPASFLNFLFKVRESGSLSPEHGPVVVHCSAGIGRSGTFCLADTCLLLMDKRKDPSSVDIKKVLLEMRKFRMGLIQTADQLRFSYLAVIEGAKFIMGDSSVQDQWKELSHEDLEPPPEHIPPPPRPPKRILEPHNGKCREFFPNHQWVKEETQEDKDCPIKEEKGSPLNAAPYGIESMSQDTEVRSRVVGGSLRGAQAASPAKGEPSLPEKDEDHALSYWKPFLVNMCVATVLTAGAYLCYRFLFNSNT
Put plainly: Inhibition of Protein-tyrosine phosphatase 1B.
Conditions: not given
Take `COC(=O)c1c(O)cccc1OCCCCNC(=O)[C@H](Cc1ccc(NS(=O)(=O)C(F)(F)F)cc1)NC(C)=O`: the inhibitory constant (Ki) was more than 200 µM.
Still for that read-out and setting: to `COC(=O)c1c(O)cccc1OCCCCNC(=O)[C@H](Cc1ccc(NC(=O)c2ncccc2O)cc1)NC(C)=O` belongs more than 200 µM; to `COC(=O)c1c(O)cccc1OCCCCNC(=O)[C@H](Cc1ccc(NCC(=O)O)cc1)NC(=O)OC(C)(C)C`, more than 200 µM.
`COC(=O)c1c(O)cccc1OCCCCNC(=O)[C@H](Cc1ccc(NC(=O)C(=O)O)cc1)NC(C)=O` came in with a Ki of 6.1 µM.
Compound `COC(=O)c1c(O)cccc1OCCCCNC(=O)[C@H](Cc1ccc(OCC(=O)O)c(N)c1)NC(C)=O` had a Ki of more than 200 µM.
Take `COC(=O)c1c(O)cccc1OCCCCNC(=O)[C@H](Cc1ccc(NC(=O)CO)cc1)NC(C)=O`: the Ki was more than 200 µM.
Compound `CCCCC(C)NC(=O)[C@H](Cc1ccc(OCC(=O)O)c(C2N=NN=N2)c1)NC(=O)[C@H](Cc1ccccc1)NC(=O)OC(C)(C)C` (stereo not given in full) came in with a Ki of 2 µM. This lies in the single-digit micromolar range.
The same measure, in the same setting: the figure for `COC(=O)c1c(O)cccc1OCCCCNC(=O)[C@H](Cc1ccc(OC(CO)C(=O)O)cc1)NC(=O)OC(C)(C)C` (stereo not given in full) is more than 200 µM; for `COC(=O)c1c(O)cccc1OCCCCNC(=O)[C@H](Cc1ccc(NC(=O)C(F)(F)F)cc1)NC(C)=O` it is more than 200 µM.
`COC(=O)c1c(O)cccc1OCCCCNC(=O)[C@H](Cc1ccc(/C=C\C(=O)O)cc1)NC(=O)OC(C)(C)C` yielded a Ki of more than 200 µM.
`COC(=O)c1c(O)cccc1OCCCCNC(=O)[C@H](Cc1ccc(OCC(=O)O)c(C(=O)O)c1)NC(C)=O` yielded an inhibition constant Ki of 2.2 µM.

(Values after ChEMBL document CHEMBL1136349, “Identification of a monoacid-based, cell permeable, selective inhibitor of protein tyrosine phosphatase 1B” (Bioorg Med Chem Lett, 2003).)
